In patent US4764461A, “Tellurium and selenium compounds for the induction of in vivo and in vitro production of cytokines” (priority 1987, dated 1988):
“And” between values parts separate entries of the source, which are not always exact repeats. Equal entries are not always repeated. “Also recorded” adds a separate entry of the source.

What was measured:
IL-2; mouse spleen cells = assay: In vitro induction of IL-2 from mouse spleen cells (Example 7); type: cell-based, Balb-c mice; conditions: baseline 4,000-5,000 CPM
Procedure: (§1) This example describes the in vitro making of IL-2 and CSF from mouse spleen cells using the compound of Example 1 as the extrinsic stimulating agent.
(§2) Spleens were removed from 15, male Balb-c mice 6 to 8 weeks of age. The spleen cells were pushed through stainless steel 60 mesh (U.S. standard) nets resting in […] Petri dishes containing PBS in order to separate the cells. The cells were then collected into centrifuge tubes and spun at 1000 rpm for 10 minutes. The supernatant was discarded and cells were treated with 5 ml of hypotonic buffer (0.15MNH4 Cl; 0.01M KHCO3 dissolved in double distilled water, pH 7.2) for exactly two minutes. Thereafter, PBS was added to the cells and the test tubes were centrifuged for 10 minutes at 1000 rpm. The cells were rinsed twice and counted in a heamocytometer using trypan blue to test for viability. The cells were brought to a concentration of 10^7 viable cells/ml. The cells were contacted with varying amounts of the compound of Example 1 in 1 ml of 40% DMSO 60% PBS.

West Nile virus (WNV) [1] = assay: West Nile virus infection in mice (Example 22); type: in vivo, ICR mice
Procedure: The effect of the compound of Example 1 on an infection with West Nile virus (WNV) was determined. WNV is a toga virus of the flavivirus group, a positive single stranded RNA virus, which when injected IP to mice usually kills them within 5-8 days as a result of extensive damage to the central nervous system. For this study ICR mice (3 wks of age) were injected IP with the virus at the concentration of 10^3 or 10^4 LD 50 units/mouse. Injections of 10 μg/0.2 ml PBS/mouse of the compound of Ex. 1 were given on day -1 (one day prior to injection of virus) and 6 days after injection of virus.
In a second experiment, mice were injected with 10^3 IPLD50 virus and received injections of the compound of Example 1 (1 μg/0.2 ml PBS/mouse) on days -1, 1, 2 and 4.

fibrosarcoma cells = assay: Survival of mice with methylcholanthrene-induced fibrosarcoma cells (Example 6); type: in vivo, Balb-c mice; conditions: until just after the increased dosage regimen (day 39)
Procedure: Balb-c mice, age 7 weeks were injected with methylcholanthrene to induce the formation of fibrosarcoma cells according to the procedure of Example 5. The test animals were divided into two groups.
(a) control (0.2 IP of 40% DMSO and 60% PBS)

West Nile virus (WNV) [2] = assay: WNV yield in mouse macrophage cultures (Example 23); type: cell-based, WNV in ICR mouse macrophages; conditions: for Virus Yield (PFU/ml): virus alone 2 × 10^4 /ml
Procedure: Varying amounts of the compound of Example 1 (5 μg, 1 μg, 0.1 μg) were incubated with a monolayer of mouse macrophages for 24 h. […] All cultures were then infected with 10^4 PFU/plate. After 72 h incubation the supernatants were collected and the virus was titrated against Vera cells.

mice = assay: Preliminary toxicity studies in mice; type: in vivo; conditions: 6 week old mice
Procedure: The compounds may be used as anti-bacterial or anti-viral agents in plants or in animals. Virus infections such as West Nile virus infections in mice are susceptible to the compound of the Example 1 at a dose of 10 μg/day/mouse. Plant bacterial infections such as crown gall caused by Agrobacterium tumefaciens may be treated or prevented by the application of a 0.1% solution of compounds of the invention.

[3] = tested on: IL-2; human mononuclear cells; assay: IL-2 production by human mononuclear cells of normal donors and systemic lupus patients, with or without PHA (Example 20); type: cell-based
Procedure: Using the procedure of Example 4, human mononuclear cells were tested for their ability to produce IL-2 after induction with PHA or in unstimulated cells from normal donors and from patients suffering from systemic lupus erthyrematous. The IL-2 content was tested according to the procedure of Example 3 using the CTLD IL-2 dependent cell line.
*Dilution of 1 part of 0.2 ml of PBS containing 5 μg of compound of Ex
**CPM × 10^-3 of ^3 H Thymidine of 5 × 10^4 CTLD
cells in presence of 1:2 dilution of the supernatants as in Ex. 3. PG,4

CSF; mouse spleen cells = assay: In vitro induction of colony stimulating factor (CSF) from mouse spleen cells (Example 7); type: cell-based, Balb-c mice; conditions: baseline 70-80 colonies/dish
Procedure: as §1, §2

IL-2 = assay: Oral administration: induction of lymphokines, IL-2 content of spleen cell supernatants (Example 13); type: in vivo, Balb-C mice; conditions: for IL-2, percent increase as compared to control: 4 days
Procedure: The water solution was prepared by dissolving the compounds in PBS at a concentration of 50 μg/ml PBS and diluting the resulting solution to the desired concentration. The compounds were administered over a 4 day period. The exact amount of liquid intake was recorded daily. […] The cells were incubated at a concentration of 10^7 cells/ml in enriched RPMI containing 2 μg/ml of con-A for 24 hours at 37° C. The supernatants were collected and tested for IL-2 content.
After 24 hours the mice were sacrificed and the spleens were processed as described above.

[4] = tested on: IL-2; human mononuclear cells; assay: IL-2 activity of human mononuclear cell supernatants on CTLD cells (Example 8); type: cell-based; conditions: control CTLD cells 3,500
Procedure: Human mononuclear cells were obtained as described above and cultured for 72 hours at a concentration of 10^6 cells/ml enriched RPMI, in the presence of varying concentrations of the compound of Example 1. Culture supernatants were collected, centrifuged and tested for IL-2 activity by using 50% of the volume of the supernatant assaying their ability to support the proliferation of the IL-2 dependent cell line CTLD.

IL-2; spleen cells = assay: In vitro IL-2 secretion of mouse spleen cells, CTLD assay (Example 17); type: cell-based, Balb/c mice; conditions: IL-2 activity, 24 h; for Spleen Cells (cpm): control 2,550
Procedure: The compounds listed below were tested in vitro at various concentrations that ranged from 10 μg/ml cells to 1×10^-6 μg/ml of cell mixtures. Cells were obtained from spleens of male Balb/c mice 6-8 weeks of age. Spleens were pushed through a stainless steel 60 mesh strainer to separate cells.

human mononuclear cells = assay: Proliferation of human mononuclear cells (Example 19); type: cell-based; conditions: at any concentration that was tested
Procedure: Human mononuclear cells were obtained by layering heparinized blood over a Ficoll/Hypaque gradient. The mononuclear cells were resuspended in enriched RPMI, rinsed three times and brought to a concentrations of 5×10^5 cells/ml encriched RPMI. […] Aliquots of 0.2 ml of each sample were placed in wells of microplates (triplicates). Microplates were incubated for 72 hours at 37° C. after which they were labelled with H^3 methyl-thymidine 1 uCi/well for an additional 24 hours. Cells were then harvested with a cell harvester.

[5] = tested on: IL-2 receptors; human mononuclear cells; assay: Detection of IL-2 receptor sites with fluoresceinated antibody (Example 21); type: cell-based; conditions: 1 μg/ml, 24 h; control 2%
Procedure: This example provides an assay to detect the presence of receptor sites for IL-2. […] The cells were washed twice with PBS and then incubated with a specific fluoresceinated antibody against IL-2 receptors as described in Uchiyama et al, J. Immunol.

[6] = tested on: IL-2 receptors of human mononuclear cells; assay: Induction of IL-2 receptors of human mononuclear cells, proliferation by 3HT uptake (Example 18); type: cell-based
Procedure: Human MNC were brought to a concentration of 10^6 cells/ml. RPMI+10% FCS. Aliquots of 0.2 ml. were placed in duplicate wells of microdishes and plates were incubated at 37 C for 24 hrs. […] Plates were further incubated for 48 hrs. and labelled with 3H thymidine 24 hrs. before harvesting.
The proliferation was measured by ^3 HT uptake as described by Gillis et al, J. Immunol. […] The results are expressed in counts per minute.

## Cl[TeH]1(Cl)(Cl)OCCO1 [Example 1]
IL-2; mouse spleen cells; 5 pg
  IL-2 (cpm): 12,000 cpm
IL-2; mouse spleen cells; 50 pg
  IL-2 (cpm): 38,000 cpm
IL-2; mouse spleen cells; 500 pg
  IL-2 (cpm): 30,000 cpm
IL-2; mouse spleen cells; 5 ng
  IL-2 (cpm): 15,000 cpm
IL-2; mouse spleen cells; 50 ng
  IL-2 (cpm): 6,000 cpm
IL-2; mouse spleen cells; 500 ng
  IL-2 (cpm): 5,000 cpm
IL-2; mouse spleen cells; 5 μg
  IL-2 (cpm): 5,000 cpm
IL-2; mouse spleen cells; 50 μg
  IL-2 (cpm): 5,000 cpm
West Nile virus (WNV) [1]; 10 μg/day/mouse
  West Nile virus infections in mice: susceptible
West Nile virus (WNV) [1]; 10^3 or 10^4 LD50 virus, 10 μg/mouse
  animals remained alive after 8 days: three out of five
West Nile virus (WNV) [1]; Table A, no virus (0), compound alone
  # Alive/Total Animals: 6/6
West Nile virus (WNV) [1]; second experiment, after day 8
  further survival of the remaining three mice: Two out of the remaining three survived an additional 8 days; also recorded: the third remained alive without any manifestations of clinical symptoms
West Nile virus (WNV) [1]; second experiment, day 8, 10^3 IPLD50 virus, 1 μg/mouse on days -1, 1, 2 and 4, virus alone 0/8
  # Alive/Total: 3 out of 5 and 3/5
West Nile virus (WNV) [1]; second experiment, day 8, compound alone, no virus
  # Alive/Total: 5/5
Fibrosarcoma cells
  mortality results for group (b): 0%
West Nile virus (WNV) [2]; 0.1 μg
  reduction in virus yield: ten
West Nile virus (WNV) [2]; 0.1 μg/plate
  Virus Yield (PFU/ml): 2 × 10^3 PFU/ml
West Nile virus (WNV) [2]; 1 μg/plate
  Virus Yield (PFU/ml): 5 × 10^2 PFU/ml
mice
  LD50: 300 ug./25 g of body weight
[3]; SLE, PHA +, 5 μg 0.2 ml PBS
  IL-2 production, CPM × 10^-3 of 3H thymidine: 6.3 CPM × 10^-3 and 8.2 CPM × 10^-3 and 4.1 CPM × 10^-3
[3]; SLE, PHA +, 1:100 PBS
  IL-2 production, CPM × 10^-3 of 3H thymidine: 24.0 CPM × 10^-3
[3]; SLE, PHA -, 5 μg 0.2 ml PBS
  IL-2 production, CPM × 10^-3 of 3H thymidine: 2.0 CPM × 10^-3 and 2.4 CPM × 10^-3
[3]; normal, PHA -, 5 μg 0.2 ml PBS
  IL-2 production, CPM × 10^-3 of 3H thymidine: 2.3 CPM × 10^-3 and 2.1 CPM × 10^-3
CSF; mouse spleen cells; 5 pg
  CSF (colonies/dish): 140 colonies/dish
CSF; mouse spleen cells; 50 pg
  CSF (colonies/dish): 260 colonies/dish
CSF; mouse spleen cells; 5 ng
  CSF (colonies/dish): 120 colonies/dish
CSF; mouse spleen cells; 50 ng
  CSF (colonies/dish): 75 colonies/dish
CSF; mouse spleen cells; 500 ng
  CSF (colonies/dish): 25 colonies/dish
CSF; mouse spleen cells; 5 μg
  CSF (colonies/dish): 5 colonies/dish
CSF; mouse spleen cells; 50 μg
  CSF (colonies/dish): 2 colonies/dish
IL-2; 1 μg/ml drinking water
  IL-2, percent increase as compared to control: 50%
IL-2; given in dry form or when hydrolyzed in an aqueous diluent
  inducing lymphokine production: active for inducing lymphokine production
[4]; 1 ng
  IL-2 activity, Counts per minute: 11,000 Counts per minute
[4]; 10 ng
  IL-2 activity, Counts per minute: 1,500 Counts per minute
[4]; 1 μg
  IL-2 activity, Counts per minute: 250 Counts per minute
[4]; 100 μg
  IL-2 activity, Counts per minute: 280 Counts per minute

## Ph2 TeCl
IL-2; spleen cells
  Spleen Cells (cpm): 2,100 cpm

## O=[Te]=O [TeO2, Tellurium dioxide]
Human mononuclear cells
  effect on proliferation: No significant effect
IL-2; spleen cells
  Spleen Cells (cpm): 17,055 cpm
IL-2; spleen cells; control 2,550 cpm
  Spleen Cells, percent increase: 508%
[5]
  cells positive for IL-2 receptors: 5%
[6]; Test A, 1 μg/ml, control 2338
  proliferation (3HT uptake), counts per minute: 1563 counts per minute
[6]; Test A, 1 × 10^-2 μg/ml, control 2338
  proliferation (3HT uptake), counts per minute: 3108 counts per minute
[6]; Test A, 1 × 10^-3 μg/ml, control 2338
  proliferation (3HT uptake), counts per minute: 2867 counts per minute
[6]; Test A, 1 × 10^-4 μg/ml, control 2338
  proliferation (3HT uptake), counts per minute: 5540 counts per minute
[6]; Test A, 1 × 10^-5 μg/ml, control 2338
  proliferation (3HT uptake), counts per minute: 3442 counts per minute
[6]; Test A, 5 × 10^-1 μg/ml, control 2338
  proliferation (3HT uptake), counts per minute: 4667 counts per minute
[6]; Test A, 5 × 10^-2 μg/ml, control 2338
  proliferation (3HT uptake), counts per minute: 2515 counts per minute
[6]; Test A, 7 × 10^-1 μg/ml, control 2338
  proliferation (3HT uptake), counts per minute: 2475 counts per minute
[6]; Test B, 1 μg/ml, control 5573
  proliferation (3HT uptake), counts per minute: 3275 counts per minute
[6]; Test B, 1 × 10^-2 μg/ml, control 5573
  proliferation (3HT uptake), counts per minute: 3077 counts per minute
[6]; Test B, 1 × 10^-3 μg/ml, control 5573
  proliferation (3HT uptake), counts per minute: 3800 counts per minute
[6]; Test B, 1 × 10^-4 μg/ml, control 5573
  proliferation (3HT uptake), counts per minute: 2925 counts per minute
[6]; Test B, 1 × 10^-5 μg/ml, control 5573
  proliferation (3HT uptake), counts per minute: 3645 counts per minute
[6]; Test B, 5 × 10^-1 μg/ml, control 5573
  proliferation (3HT uptake), counts per minute: 5405 counts per minute
[6]; Test B, 5 × 10^-2 μg/ml, control 5573
  proliferation (3HT uptake), counts per minute: 4280 counts per minute
[6]; Test B, 7 × 10^-1 μg/ml, control 5573
  proliferation (3HT uptake), counts per minute: 4302 counts per minute

## CC(=O)O[Te](OC(C)=O)(c1ccccc1)c1ccccc1 [Ph2 Te(OCOCH3)2]
IL-2; spleen cells
  Spleen Cells (cpm): 3,500 cpm

## O=C(O[Te](OC(=O)c1ccccc1)(c1ccccc1)c1ccccc1)c1ccccc1 [Ph2 Te(OCOPh)2]
IL-2; spleen cells
  Spleen Cells (cpm): 4,300 cpm

## Cl[Te](Cl)(Cl)c1ccccc1 [PhTeCl3]
IL-2; spleen cells
  Spleen Cells (cpm): 18,000 cpm

## Cl[Te](Cl)(c1ccccc1)c1ccccc1 [Ph2 TeCl2]
IL-2; spleen cells
  Spleen Cells (cpm): 2,300 cpm

## Cl[Te]1(Cl)OCCO1 [Example 2]
IL-2; spleen cells
  Spleen Cells (cpm): 18,000 cpm
IL-2; 1 μg/ml drinking water
  IL-2, percent increase as compared to control: 30%
IL-2; 25 μg/ml drinking water
  IL-2, percent increase as compared to control: 35%
